Test results taken from US20240239790A1, “7-Morpholino-1,6-Naphthyridin-5-yl Derivatives and Pharmaceutical Compositions Thereof Useful as DNA-PK Inhibitor” (adMare Therapeutics Society, priority 2021, published 2024).
Like-named read-outs stand apart in the source and are kept apart here.

What was measured:
[1] = system: pDNA-PK induction in HCT116 tumour spheroids; experiment: Multicellular tumour spheroid + radiation, pDNA-PK (ser2056) inhibition, immunohistochemical endpoint, HCT116; assay type: cell-based; conditions: Homo sapiens, HCT-116, 20 Gy, 2 hours following radiation, 20% O2
How it was run: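 HCT116 spheroids (~0.5 mm) in MEM/10% FBS, 20% O2, 37° C., pre-incubated 1 h with compound (10 or 5 μM down to 3.5 nM), irradiated 20 Gy, then 2 h further with compound. Cryosections immunostained for pDNA-PK ser2056; EC50 is concentration halving radiation-induced pDNA-PK.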

DNA-PK = molecular target: T1, DNA-PK (Homo sapiens, UniProt P78527); experiment: DNA-PK Assay for Biochemical Enzymatic Inhibition (ADP Glo Kinase assay); conditions: DNA-PK enzyme, Table 1
T1 construct: purchased Invitrogen PR9107A
How it was run: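 Human DNA-PK (25 ng) preincubated 15 min with compounds (ten three-fold dilutions) in HEPES pH 7.5, MgCl2, KCl, calf thymus DNA buffer, then substrate 434.4 μM and ATP 64.4 μM (final) for 60 min at room temperature. ADP-Glo luminescence; percent inhibition fitted by four-parameter regression for IC50.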

[2] = Hepatocyte Stability Assay, human hepatocytes; assay type: in vitro ADME; conditions: for hepatocyte CLint at 1 uM: both sexes, cryopreserved hepatocytes, pH 7.3, human hepatocytes 0.7 million cells per mL, 1 uM compound; for Hepatocyte Stability Human % rem. 120 min: human hepatocytes
Description: Cryopreserved mouse hepatocytes were obtained from a pool of 10 or more male CD-1 mice. Cryopreserved human hepatocytes were obtained from a pool of 10 or more donors of mixed gender. Final hepatocyte density was 0.7 million viable cells per mL and test compound concentration was 1 uM with a maximum of 0.01% DMSO. Cryopreserved hepatocytes were thawed, washed, and resuspended in Krebs-Heinslet buffer (pH 7.3). The reaction was initiated by adding the test compound into cell suspension and incubated for 0, […], 1, 1.5, and 2 h, respectively, at 37° C./5% C02. The reaction was stopped by adding acetonitrile into the incubation mixture. Samples were then mixed, transferred completely to another 96-well plate, and centrifuged. Supernatants were used for HPLC-MS/MS analysis. […] Peak areas corresponding to the test compound were recorded.

[3] = Example 9 Study 2, read-out: Spheroid Cell line: HCT116 Immunohistochemical endpoint pDNA-PK inhibition EC50
[4] = Spheroid, Cell Line: HCT115 (so in the source), Example 7, read-out: EC50, Immunohistochemical endpoint, pDNA-PK inhibition

EC50 [1, 3] [nM]	EC50 [1, 4] [nM]	IC50 (DNA-PK) [nM]	hepatocyte CLint at 1 uM [2] [µL/min/1e6 cells]	Hepatocyte Stability Human % rem. 120 min [2]	SMILES
10 to 500	10 to 500	< 0.5	< 8.2	G (% remaining = 50-75%)	CS(=O)(=O)c1cnc2cc(N3CCOCC3)nc(O[C@H]3CC[C@@H](Nc4ncnc5ccoc45)CC3)c2c1 [Compound 204b, N-((1s,4s)-4-((3-(methylsulfonyl)-7-morpholino-1,6-naphthyridin-5-yl)oxy)cyclohexyl)furo[3,2-d]pyrimidin-4-amine]
1000 to 10000	1000 to 10000	0.5 to 1	< 8.2	G (% remaining = 50-75%)	CC(=O)NCCOc1cnc(N[C@H]2CC[C@@H](Oc3nc(N4CCOCC4)cc4ncccc34)CC2)nc1 [Compound 66]
500 to 1000	500 to 1000	< 0.5	< 8.2	H (% remaining = 75-100%)	O=C(COc1cnc(N[C@H]2CC[C@@H](Oc3nc(N4CCOCC4)cc4ncccc34)CC2)nc1)N1CCC1 [Compound 75, 1-(Azetidin-1-yl)-2-((2-(((1s,4s)-4-((7-morpholino-1,6-naphthyridin-5-yl)oxy)cyclohexyl)amino)pyrimidin-5-yl)oxy)ethan-1-one]
10 to 500	10 to 500	< 0.5	< 8.2	G (% remaining = 50-75%)	CN(C)C(=O)Cn1c(=O)n(C2CCOCC2)c2nc(N[C@H]3CC[C@@H](Oc4nc(N5CCOCC5)cc5ncccc45)CC3)ncc21 [Compound 97, N,N-Dimethyl-2-(2-(((1s,4s)-4-((7-morpholino-1,6-naphthyridin-5-yl)oxy)cyclohexyl)amino)-8-oxo-9-(tetrahydro-2H-pyran-4-yl)-8,9-dihydro-7H-purin-7-yl)acetamide]
10 to 500	10 to 500	< 0.5	< 8.2	H (% remaining = 75-100%)	O=S(=O)(CF)Nc1cnc2cc(N3CCOCC3)nc(O[C@H]3CC[C@@H](Nc4ncccn4)CC3)c2c1 [Compound 192, 1-fluoro-N-(7-morpholino-5-(((1s,4s)-4-(pyrimidin-2-ylamino)cyclohexyl)oxy)-1,6-naphthyridin-3-yl)methanesulfonamide]
500 to 1000	500 to 1000	0.5 to 1	< 8.2	G (% remaining = 50-75%)	CN(C)C(=O)COc1ccc(C(=O)N[C@H]2CC[C@@H](Oc3nc(N4CCOCC4)cc4ncccc34)CC2)cn1 [Compound 117, 6-(2-(dimethylamino)-2-oxoethoxy)-N-((1s,4s)-4-((7-morpholino-1,6-naphthyridin-5-yl)oxy)cyclohexyl)nicotinamide]
1000 to 10000	1000 to 10000	0.5 to 1	< 8.2	G (% remaining = 50-75%)	O=S(=O)(CC(F)F)Nc1cnc2cc(N3CCOCC3)nc(O[C@H]3CC[C@@H](Nc4ncccn4)CC3)c2c1 [Compound 193, 2,2-difluoro-N-(7-morpholino-5-(((1s,4s)-4-(pyrimidin-2-ylamino)cyclohexyl)oxy)-1,6-naphthyridin-3-yl)ethane-1-sulfonamide]
10 to 500	10 to 500	< 0.5	< 8.2	G (% remaining = 50-75%)	CNC(=O)COc1cnc(N[C@H]2CC[C@@H](Oc3nc(N4CCOCC4)cc4ncccc34)CC2)nc1 [Compound 71, N-Methyl-2-((2-(((1s,4s)-4-((7-morpholino-1,6-naphthyridin-5-yl)oxy)cyclohexyl)amino)pyrimidin-5-yl)oxy)acetamide]
1000 to 10000	1000 to 10000	< 0.5	> 8.2	F (% remaining = 25-50%)	O=C(COc1cnc(N[C@H]2CC[C@@H](Oc3nc(N4CCOCC4)cc4ncccc34)CC2)nc1)N1CCNCC1 [Compound 63, 2-((2-(((1s,4s)-4-((7-Morpholino-1,6-naphthyridin-5-yl)oxy)cyclohexyl)amino)pyrimidin-5-yl)oxy)-1-(piperazin-1-yl)ethan-1-one]
1000 to 10000	1000 to 10000	< 0.5	< 8.2	G (% remaining = 50-75%)	CS(=O)(=O)c1cnc2cc(N3CCOCC3)nc(O[C@H]3CC[C@@H](Nc4ncccn4)CC3)c2c1 [Compound 200b, N-((1s,4s)-4-((3-(methylsulfonyl)-7-morpholino-1,6-naphthyridin-5-yl)oxy)cyclohexyl)pyrimidin-2-amine]
1000 to 10000	1000 to 10000	1 to 10	< 8.2	H (% remaining = 75-100%)	CS(=O)(=O)c1cnc2cc(N3CCOCC3)nc(O[C@H]3CC[C@@H](Nc4ncc(OCC(=O)N5CCOCC5)cn4)CC3)c2c1 [Compound 204a, 2-((2-(((1s,4s)-4-((3-(methylsulfonyl)-7-morpholino-1,6-naphthyridin-5-yl)oxy)cyclohexyl)amino)pyrimidin-5-yl)oxy)-1-morpholinoethan-1-one]
1000 to 10000	1000 to 10000	< 0.5	< 8.2	G (% remaining = 50-75%)	CN1CCN(CCOc2cnc(N[C@H]3CC[C@@H](Oc4nc(N5CCOCC5)cc5ncccc45)CC3)nc2)CC1 [Compound 69, 5-(2-(4-Methylpiperazin-1-yl)ethoxy)-N-((1s,4s)-4-((7-morpholino-1,6-naphthyridin-5-yl)oxy)cyclohexyl)pyrimidin-2-amine]
10 to 500	10 to 500	< 0.5	< 8.2	H (% remaining = 75-100%)	CN(C)C(=O)COc1cnc(N[C@H]2CC[C@@H](Oc3nc(N4CCOCC4)cc4ncc(NS(C)(=O)=O)cc34)CC2)nc1 [Compound 182, N,N-dimethyl-2-((2-(((1s,4s)-4-((3-(methylsulfonamido)-7-morpholino-1,6-naphthyridin-5-yl)oxy)cyclohexyl)amino)pyrimidin-5-yl)oxy)acetamide]
10 to 500	10 to 500	< 0.5	> 8.2	F (% remaining = 25-50%)	Cn1c(=O)n(C)c2nc(N[C@H]3CC[C@@H](Oc4nc(N5CCOCC5)cc5ncccc45)CC3)ncc21 [Compound 101, 7,9-Dimethyl-2-(((1s,4s)-4-((7-morpholino-1,6-naphthyridin-5-yl)oxy)cyclohexyl)amino)-7,9-dihydro-8H-purin-8-one]
10 to 500	10 to 500	0.5 to 1	> 8.2	F (% remaining = 25-50%)	O=c1[nH]c2cnc(N[C@H]3CC[C@@H](Oc4nc(N5CCOCC5)cc5ncccc45)CC3)nc2n1C1CCOCC1 [Compound 95, 2-(((1s,4s)-4-((7-Morpholino-1,6-naphthyridin-5-yl)oxy)cyclohexyl)amino)-9-(tetrahydro-2H-pyran-4-yl)-7,9-dihydro-8H-purin-8-one]
10 to 500	10 to 500	< 0.5	> 8.2	F (% remaining = 25-50%)	O=C(Cn1c(=O)n(C2CCOCC2)c2nc(N[C@H]3CC[C@@H](Oc4nc(N5CCOCC5)cc5ncccc45)CC3)ncc21)N1CCC1 [Compound 99, 7-(2-(Azetidin-1-yl)-2-oxoethyl)-2-(((1s,4s)-4-((7-morpholino-1,6-naphthyridin-5-yl)oxy)cyclohexyl)amino)-9-(tetrahydro-2H-pyran-4-yl)-7,9-dihydro-8H-purin-8-one]
